Measurements reported in PMC4053473 (Molecular cancer therapeutics, 2009).
Where no end group is shown, it is not given here.

Legend:
in vivo = conditions: SCID, mouse, iv, 5 uCi, total radioactivity
H2009 cells [1] = target: T1, H2009 cells (Homo sapiens, UniProt P06756+P18564); assay: Cellular uptake of labeled peptide by confocal/fluorescence microscopy; assay type: cell-based; conditions: for cellular uptake of peptide-Qdot conjugate (fluorescent/confocal microscopy): 20 nmol/L SAQdot605 conjugate, 10 min incubation
T1 sequence (P06756 31-1048): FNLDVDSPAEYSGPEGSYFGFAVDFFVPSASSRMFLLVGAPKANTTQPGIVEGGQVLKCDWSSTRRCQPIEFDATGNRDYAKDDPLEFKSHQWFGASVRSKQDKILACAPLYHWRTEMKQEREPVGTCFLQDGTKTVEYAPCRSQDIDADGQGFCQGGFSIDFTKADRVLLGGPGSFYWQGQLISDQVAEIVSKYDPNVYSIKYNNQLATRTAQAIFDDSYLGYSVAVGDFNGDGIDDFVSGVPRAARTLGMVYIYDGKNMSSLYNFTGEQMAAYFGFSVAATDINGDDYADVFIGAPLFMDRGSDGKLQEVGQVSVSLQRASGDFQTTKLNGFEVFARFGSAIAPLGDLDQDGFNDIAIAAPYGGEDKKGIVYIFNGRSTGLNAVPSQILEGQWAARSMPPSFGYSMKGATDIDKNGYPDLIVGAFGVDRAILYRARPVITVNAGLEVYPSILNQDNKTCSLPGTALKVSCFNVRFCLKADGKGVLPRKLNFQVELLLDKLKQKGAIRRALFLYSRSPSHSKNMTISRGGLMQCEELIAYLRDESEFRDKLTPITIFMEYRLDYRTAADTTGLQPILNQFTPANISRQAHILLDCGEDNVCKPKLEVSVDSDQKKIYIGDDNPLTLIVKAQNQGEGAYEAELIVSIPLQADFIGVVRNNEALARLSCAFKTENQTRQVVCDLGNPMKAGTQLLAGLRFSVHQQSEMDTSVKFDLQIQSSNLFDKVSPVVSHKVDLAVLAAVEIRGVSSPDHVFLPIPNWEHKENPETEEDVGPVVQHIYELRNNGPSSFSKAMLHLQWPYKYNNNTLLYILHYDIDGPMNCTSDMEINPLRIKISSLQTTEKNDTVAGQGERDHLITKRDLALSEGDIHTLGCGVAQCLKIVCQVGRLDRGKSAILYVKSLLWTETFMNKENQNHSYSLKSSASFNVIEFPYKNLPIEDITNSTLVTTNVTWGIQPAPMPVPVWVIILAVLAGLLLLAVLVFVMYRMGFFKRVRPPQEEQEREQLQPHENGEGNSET
T1 sequence (P18564 22-788): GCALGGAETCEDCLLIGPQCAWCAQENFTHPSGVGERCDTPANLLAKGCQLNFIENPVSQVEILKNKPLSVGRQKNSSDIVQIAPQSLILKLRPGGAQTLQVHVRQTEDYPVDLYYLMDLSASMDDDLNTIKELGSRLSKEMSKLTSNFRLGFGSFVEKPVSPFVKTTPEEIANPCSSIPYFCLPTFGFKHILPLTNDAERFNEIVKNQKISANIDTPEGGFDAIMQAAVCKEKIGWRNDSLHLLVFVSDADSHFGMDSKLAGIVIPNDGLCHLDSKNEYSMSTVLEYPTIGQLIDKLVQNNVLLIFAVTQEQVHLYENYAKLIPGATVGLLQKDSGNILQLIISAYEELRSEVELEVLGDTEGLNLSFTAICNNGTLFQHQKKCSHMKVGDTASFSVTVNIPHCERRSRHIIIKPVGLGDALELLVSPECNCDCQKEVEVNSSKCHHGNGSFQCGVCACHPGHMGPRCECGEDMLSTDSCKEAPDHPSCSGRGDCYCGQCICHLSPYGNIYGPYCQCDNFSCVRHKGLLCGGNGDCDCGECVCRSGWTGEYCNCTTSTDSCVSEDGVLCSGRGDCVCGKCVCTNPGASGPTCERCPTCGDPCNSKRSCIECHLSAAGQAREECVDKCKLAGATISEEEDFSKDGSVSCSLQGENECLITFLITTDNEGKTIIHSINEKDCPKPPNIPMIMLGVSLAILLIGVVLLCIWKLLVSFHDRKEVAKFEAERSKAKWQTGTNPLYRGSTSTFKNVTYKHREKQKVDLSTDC

αvβ6 = conditions: cited from earlier work
H2009 cells [2] = target: T1, H2009 cells; assay: Peptide blocking of cognate H2009.1 phage uptake on H2009 cells; assay type: cell-based; conditions: Fig. 2B, 2D, Supplementary Data

With `CC(C)C[C@H](NC(=O)[C@H](CCC(N)=O)NC(=O)[C@H](CCCNC(=N)N)NC(=O)[C@H](CC(C)C)NC(=O)[C@@H](NC(=O)[C@H](C)NC(=O)[C@H](CC(C)C)NC(=O)[C@H](CC(=O)O)NC(=O)CNC(=O)[C@@H](N)CCCNC(=N)N)[C@@H](C)O)C(=O)NCCOCCOCCOCCOCCOCCOCCOCCOCCOCCOCCOCCOCCC(=O)N[C@@H](CSC1CC(=O)N(CCC(=O)NCCCC[C@H](NC(=O)CCN2C(=O)CC(SC[C@H](NC(=O)CCOCCOCCOCCOCCOCCOCCOCCOCCOCCOCCOCCOCCNC(=O)[C@H](CC(C)C)NC(=O)[C@H](CCC(N)=O)NC(=O)[C@H](CCCNC(=N)N)NC(=O)[C@H](CC(C)C)NC(=O)[C@@H](NC(=O)[C@H](C)NC(=O)[C@H](CC(C)C)NC(=O)[C@H](CC(=O)O)NC(=O)CNC(=O)[C@@H](N)CCCNC(=N)N)[C@@H](C)O)C(N)=O)C2=O)C(=O)NCCCC[C@H](NC(=O)[C@H](CCCCNC(=O)CCN2C(=O)CC(SC[C@H](NC(=O)CCOCCOCCOCCOCCOCCOCCOCCOCCOCCOCCOCCOCCNC(=O)[C@H](CC(C)C)NC(=O)[C@H](CCC(N)=O)NC(=O)[C@H](CCCNC(=N)N)NC(=O)[C@H](CC(C)C)NC(=O)[C@@H](NC(=O)[C@H](C)NC(=O)[C@H](CC(C)C)NC(=O)[C@H](CC(=O)O)NC(=O)CNC(=O)[C@@H](N)CCCNC(=N)N)[C@@H](C)O)C(N)=O)C2=O)NC(=O)CCN2C(=O)CC(SC[C@H](NC(=O)CCOCCOCCOCCOCCOCCOCCOCCOCCOCCOCCOCCOCCNC(=O)[C@H](CC(C)C)NC(=O)[C@H](CCC(N)=O)NC(=O)[C@H](CCCNC(=N)N)NC(=O)[C@H](CC(C)C)NC(=O)[C@@H](NC(=O)[C@H](C)NC(=O)[C@H](CC(C)C)NC(=O)[C@H](CC(=O)O)NC(=O)CNC(=O)[C@@H](N)CCCNC(=N)N)[C@@H](C)O)C(N)=O)C2=O)C(=O)N[C@@H](CSC2CC(=O)N(CCNC(=O)CN3CCN(CC(=O)O)CCN(CC(=O)O)CCN(CC(=O)O)CC3)C2=O)C(=O)NCCC(=O)O)C1=O)C(N)=O` (stereo partly shown) [111In-labeled H2009.1 peptide, metal not drawn] the tissue uptake at 4 h (in vivo) was 0.84 ± 0.11 %ID/g.
For DALRLQGTLR [scrambled H2009.1 peptide], the “cellular uptake of peptide-Qdot conjugate (fluorescent/confocal microscopy)” value (H2009 cells [1]) was “No uptake”.
For GFTTGRRGDLATIHGMNPF [A20LAP], the “affinity for αvβ6” value (αvβ6) is listed as “low nanomolar range”.
With RGDLATL [H2009.1 7-mer peptide] the “ability to block phage uptake / binding affinity for H2009 cells (in words)” value (H2009 cells [2]) was “retains full activity”.
With RGDLATLRQL-OH the “ability to block phage uptake / binding affinity for H2009 cells (in words)” value (H2009 cells [2]) was “significantly reduced affinity”.
In the case of “YAAWPASGAWTGTAPC-SAGT [H1299.2-Qdot conjugate]”, the “cellular uptake of peptide-Qdot conjugate (fluorescent/confocal microscopy)” value (H2009 cells [1]) is reported as “no uptake” and the “localization of β6 integrin after treatment with peptide-Qdot conjugate” value (H2009 cells [1]; 10-min incubation, fixed, permeabilized, stained for β6) is reported as “β6 remains localized on the cell surface”.
